Results taken from patent US10471082B2, “Flavivirus protease inhibitors” (priority 2012, dated 2019).

Experiments:
DENV-4 protease = DENV-4 protease (Dengue virus type 4, UniProt P09866); assay: DENV-4 protease inhibition; type: biochemical, Dengue virus serotype 4
WNV protease = molecular target: T1, WNV protease (West Nile virus, UniProt Q9Q6P4); assay: In vitro protease assay, WNV NS2B-NS3pro; type: biochemical; details: for inhibition at 10 µM: read-out: % Inhib. WNV Protease at 10 μM; for inhibition at 25 µM: read-out: % Inhib. WNV Protease at 25 μM
T1 construct: purified viral protease NS2B-N53-pro from DENV-2 or WNV; made in house; host or cells: E. coli TOP10F' cells
Procedure: (§1) DENV-2 and WNV proteases were expressed from 2 L cultures of TOP10F′ cells (Invitrogen; Carlsbad, Calif.) transformed with expression plasmids pQE30-NS2BH(QR)-NS3pro and WNV clone 107, respectively. Cultures were grown in LB medium supplemented with ampicillin (100 μg/mL) and 0.1% glucose at 37° C. until the OD600 reached 0.6-0.7. The medium was then replaced with fresh LB-ampicillin with 1 mM IPTG. Expression was done at 20° C. for 16 h. Cells were then pelleted and either frozen or used immediately for purification using a Talon metal affinity resin (Clontech; Mountain View, Calif.).
(§2) A reaction mixture was prepared containing 200 mM Tris pH 9.5, 30% glycerol, 0.1% CHAPS detergent (to prevent non-specific aggregation of compounds), 50 nM DENV2QRpro enzyme and 10 μM Bz-Nle-Lys-Arg-Arg-AMC in each 30 μL reaction in duplicate 384-well plates. Aprotinin (2 μM) was used as a positive control. Compounds which inhibited the cleavage of the substrate by at least 50% were considered as positive hits. From the list of positive compounds, the highest scoring hits were selected for further analysis. […] Out of the 29 compounds, only 22 dissolved in DMSO at 5 mM. The activities of the 22 compounds were tested against DENV-2 and WNV proteases at 10 and 25 μM of the inhibitor concentration. […] A control containing only 2% DMSO and the substrate was used to achieve the minimum value of relative fluorescence units (RFU) for background subtraction. Compounds that reduced the protease activity by ≥70% were selected for further analysis.
(§3) Compound I, Compound II, Compound III, Compound IV, Compound V, Compound VI, and Compound VII were analyzed by in vitro protease assays. The compounds were tested for DENV-2 and WNV protease inhibition activity. All assays were done in triplicate in black 96-well plates. Protease activity experiments were performed in vitro using purified viral protease NS2B-N53-pro from DENV-2 or WNV. The reaction mixture of 100 μL/well contained 200 mM Tris pH 9.5, 30% glycerol, 27 nM WNV, 2% DMSO and fluorogenic tetra-peptide substrate Bz-Nle-Lys-Arg-Arg-AMC at concentrations that varied (0.05, 0.1, 0.5, 1, 2, 5, 10, and 25 μM). The percent activities after 30 min versus inhibitor concentration were plotted in GraphPad Prism v5.04 using the four-parameter nonlinear regression (Hill slope method).
(§4) In all assays, the inhibitor-enzyme complex was allowed to form by pre-incubation for 15 min at room temperature (RT) before addition of the substrate. After 5 min incubation, reactions were monitored by the release of free AMC, every 1.5 min for 30 min. The fluorescence emission was recorded at 465 nm following excitation at 385 nm using the Spectra Max Gemini EM (Molecular Devices; Silicon Valley, Calif.). The relative fluorescence units (RFU) were converted to absolute AMC product concentrations using Excel, where the data were transformed using the slope from the linear regression of the AMC calibration curve generated from the fluorescence values versus micromolar (μM) concentrations of free AMC. RFUs, obtained in a standard assay in the absence of inhibitors, were taken as 100% protease activity (or 0% inhibition), the background value (no protease) as 0% activity (or 100% inhibition). Kinetic values were determined using Microsoft Excel and GraphPad Prism 5 (La Jolla, Calif.).

[1] = Cell viability (CellTiter Glo) in BHK21-DENV2 cells; type: cell-based; details: hamster, ATP production
Procedure: (§5) Both drug efficacy and cytotoxicity were measured using the same experimental plate. Prior to compound treatment, BHK21-DENV2 or Vero-WNV cells at […] were plated in 96-well plates with each well containing 10^4 cells. After 24 h incubation, the medium was replaced with 100 μL fresh medium containing different compound concentrations (0.5, 1, 2, 5, 10, and 25 μM) in triplicate wells. Cells were incubated again for 24 h. Cells were then washed with PBS and the luminescence signal from Renilla luciferase activity was read using the Renilla luciferase assay kit (Promega Corp; Fitchburg, Wis.) using a luminometer (Berthold Technologies, Inc.; Oak Ridge, Tenn.). Cell viability (CC50) was measured as amount of ATP production in viable (live) cells using a chemiluminescence detection method (CellTiter Glo kit from Promega Corp) using the Model LB960 luminometer (Berthold Technologies). The EC50 and CC50 values of selected compounds were calculated similar to IC50s using GraphPad Prism v5. Experiments were done in duplicates.
Following a similar protocol, the EC50 and CC50 values of Compounds III and V for inhibition of DENV2 replicon-expressing BHK21 cells and cell viability of those cells treated with Compounds III and V were determined.

[2] = system: WNV replicon-expressing Vero cells; assay: WNV replicon assay (Renilla luciferase); type: cell-based; details: West Nile virus, 24 h
Source text: (§6) The efficacy of the compounds was also examined in cell-based assays performed in mammalian cells. Mammalian cells are the host for replication of the virus; a compound added to the growth medium of the mammalian cell in which a replicon RNA or dengue virus is replicating, the compound of interest could permeate the cell and interfere with the replication process. If there is a quantitative read-out of replication efficiency, the potency of the inhibitor compound could be evaluated in a quantifiable manner. There are two types of quantifiable assays available both employing mammalian cells; the first is the Baby Hamster Kidney (BHK) or monkey kidney (Vero) cells harboring DENV-2 or WNV replicon RNA, respectively, in a continuously replicating state and these are “stable replicon-expressing” cells. […] The inhibition of infectivity of the virus by the compound is measured by the extent of reduction of the titer of virus determined by plaque assay.
(§7) Both drug efficacy and cytotoxicity were measured using the same experimental plate. […] Cells were then washed with PBS and the luminescence signal from Renilla luciferase activity was read using the Renilla luciferase assay kit (Promega Corp; Fitchburg, Wis.) using a luminometer (Berthold Technologies, Inc.; Oak Ridge, Tenn.). […] The EC50 and CC50 values of selected compounds were calculated similar to IC50s using GraphPad Prism v5. […]

DENV-1 protease = DENV-1 protease (Dengue virus type 1, UniProt P17763); assay: DENV-1 protease inhibition; type: biochemical, Dengue virus serotype 1
[3] = Cell viability (CellTiter Glo) in Vero-WNV cells; type: cell-based; details: monkey, ATP production
Procedure: as §5

DENV-3 protease = DENV-3 protease (Dengue virus type 3, UniProt P27915); assay: DENV-3 protease inhibition; type: biochemical, Dengue virus serotype 3
[4] = system: DENV2 replicon-expressing BHK21 cells; assay: DENV2 replicon assay (Renilla luciferase); type: cell-based; details: Dengue virus, DENV2, BHK-21
Source text: as §6, §7

DENV-2 protease = molecular target: T2, DENV-2 protease (Dengue virus type 2, UniProt P14340); assay: In vitro protease assay, DENV-2 NS2B-NS3pro; type: biochemical, Dengue virus serotype 2; details: for inhibition at 10 µM: 10 μM inhibitor, read-out: % Inhib. DENV 2 Protease at 10 μM; for inhibition at 25 µM: 25 μM inhibitor, read-out: % Inhib. DENV 2 Protease at 25 μM; for IC50: substrate Bz-Nle-Lys-Arg-Arg-AMC, triplicate, read-out: IC50 DENV2
T2 construct: expression plasmids pQE30-NS2BH(QR)-NS3pro and WNV clone 107, respectively; made in house; host or cells: E. coli TOP10F' cells
Procedure: as §1, §2, §3, §4

Dengue virus = assay: Plaque assay for anti-dengue viral activity; type: cell-based; details: for virus titer: BHK 21 cells, MOI 1, 48 h, no-treatment 2×10^5; for EC50: Dengue virus, read-out: EC50 in virus replication
Source text: The efficacy of the compounds was also examined in cell-based assays performed in mammalian cells. Mammalian cells are the host for replication of the virus; a compound added to the growth medium of the mammalian cell in which a replicon RNA or dengue virus is replicating, the compound of interest could permeate the cell and interfere with the replication process. If there is a quantitative read-out of replication efficiency, the potency of the inhibitor compound could be evaluated in a quantifiable manner. There are two types of quantifiable assays available both employing mammalian cells; the first is the Baby Hamster Kidney (BHK) or monkey kidney (Vero) cells harboring DENV-2 or WNV replicon RNA, respectively, in a continuously replicating state and these are “stable replicon-expressing” cells. The second assay is infectivity assays in which mammalian cells are infected with DENV and the compound of interest is added at various concentrations and incubated. The inhibition of infectivity of the virus by the compound is measured by the extent of reduction of the titer of virus determined by plaque assay.
BHK 21 cells (1×10^5) were plated onto each well of 12 well-cell culture plate. […] One hour later, the Dengue virus was added (MOI:1). After an additional 48 hours, the supernatant was collected and tested by the plaque assay.
LLC-MK2 cells were plated at 2.5×10^5 cells per well in 6-well plates containing 2 ml culture medium and incubated overnight. Serially diluted supernatants from BHK21 cells treated with compounds at different concentrations as described above were incubated with cells in paired wells of six-well plates for 2 h. Cells were overlaid with 1× media containing 0.5% Sea-Kem GTG agarose (FMC Bioproducts; Philadelphia, Pa.) and were incubated for 7 days at 37° C. and visualized by staining with 0.01% neutral red solution overnight.

T1 sequence (Q9Q6P4 1506-1683): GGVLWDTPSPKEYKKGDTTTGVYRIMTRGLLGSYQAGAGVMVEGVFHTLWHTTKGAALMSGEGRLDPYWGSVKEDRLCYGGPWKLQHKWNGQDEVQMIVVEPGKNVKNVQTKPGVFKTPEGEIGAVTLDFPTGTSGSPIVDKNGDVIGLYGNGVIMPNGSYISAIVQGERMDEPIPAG
T1 sequence (Q9Q6P4 1375-1505): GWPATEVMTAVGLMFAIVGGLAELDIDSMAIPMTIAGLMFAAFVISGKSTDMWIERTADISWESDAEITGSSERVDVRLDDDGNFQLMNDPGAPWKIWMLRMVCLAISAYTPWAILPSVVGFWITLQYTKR
T2 sequence (P14340 1476-1653): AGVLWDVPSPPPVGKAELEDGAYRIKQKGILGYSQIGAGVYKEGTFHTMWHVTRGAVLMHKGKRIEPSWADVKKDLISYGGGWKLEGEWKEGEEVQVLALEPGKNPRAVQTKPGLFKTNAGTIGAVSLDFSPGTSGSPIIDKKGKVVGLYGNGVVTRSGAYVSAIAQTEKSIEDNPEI
DENV-4 protease, sequence (P09866 1475-1652): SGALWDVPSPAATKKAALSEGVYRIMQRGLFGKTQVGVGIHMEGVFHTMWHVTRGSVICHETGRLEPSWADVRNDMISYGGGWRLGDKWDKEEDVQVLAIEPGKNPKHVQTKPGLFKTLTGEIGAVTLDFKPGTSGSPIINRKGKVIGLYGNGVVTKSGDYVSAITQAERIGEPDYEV
DENV-4 protease, sequence (P09866 1393-1439): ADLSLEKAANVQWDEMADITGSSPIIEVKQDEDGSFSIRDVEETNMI
DENV-3 protease, sequence (P27915 1474-1651): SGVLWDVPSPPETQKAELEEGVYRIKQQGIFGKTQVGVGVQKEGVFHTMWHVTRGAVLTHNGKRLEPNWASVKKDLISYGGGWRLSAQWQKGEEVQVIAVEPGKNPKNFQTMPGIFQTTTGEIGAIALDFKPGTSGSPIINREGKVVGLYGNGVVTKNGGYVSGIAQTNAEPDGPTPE
DENV-3 protease, sequence (P27915 1392-1438): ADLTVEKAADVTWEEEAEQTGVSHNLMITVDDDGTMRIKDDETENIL
DENV-1 protease, sequence (P17763 1394-1440): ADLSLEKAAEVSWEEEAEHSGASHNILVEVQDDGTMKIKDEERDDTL
DENV-1 protease, sequence (P17763 1476-1653): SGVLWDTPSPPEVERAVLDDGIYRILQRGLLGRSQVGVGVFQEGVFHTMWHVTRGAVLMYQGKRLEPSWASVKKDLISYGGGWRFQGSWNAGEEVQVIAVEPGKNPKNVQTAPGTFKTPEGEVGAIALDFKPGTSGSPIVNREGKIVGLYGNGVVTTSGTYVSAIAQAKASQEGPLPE

SMILES	IC50 (WNV protease) [µM]	inhibition at 10 µM (WNV protease) [%]	inhibition at 25 µM (WNV protease) [%]	inhibition at 10 µM (DENV-2 protease) [%]	inhibition at 25 µM (DENV-2 protease) [%]	IC50 (DENV-2 protease) [µM]	EC50 (Dengue virus) [µM]	other results
Cc1ccc(C2=NC(=O)/C(=C/c3cc(O)c(O)c(Br)c3)S2)cc1 [Compound III]	1.3	98	98	96	94	3.4	< 10	IC50 (DENV-4 protease): 3.92 ± 0.05 µM; CC50 at 24 h [1]: 407 µM; EC50 [2]: 3.7 µM; IC50 (DENV-1 protease): 5.99 ± 1.4 µM; CC50 at 24 h [3]: 130 µM; IC50 (DENV-3 protease): 4.8 ± 1.1 µM; EC50 [4]: 7.2 µM; fold reduction of virus titer (Dengue virus; 10 μM compound): 3.3 fold; virus titer (Dengue virus; 10 μM compound): 6×10^4 PFU/ml; fold reduction of virus titer (Dengue virus; 15 μM compound): 5 fold; virus titer (Dengue virus; 15 μM compound): 4×10^4 PFU/ml; fold reduction of virus titer (Dengue virus; 20 μM compound): 100 fold; virus titer (Dengue virus; 20 μM compound): 2×10^3 PFU/ml
Cc1sc2nc(SCC(=O)c3ccc(O)c(O)c3)[nH]c(=O)c2c1C [Compound II]	9.7	45	92	57	92	8.8		inhibition of the virus titer (Dengue virus; 20 μM compound): did not show a significant inhibition
O=c1c(Oc2ccccc2)c(C(F)(F)F)oc2c(O)c(O)ccc12 [Compound IV]	6.7	71	95	63	82	8.5	< 20	
COCc1cc(C)nc(SCC(=O)c2ccc(O)c(O)c2)c1C#N [Compound I]	9	54	95	51	89	10.5		
Cc1ccc(C(=O)c2cc(O)c(O)c([N+](=O)[O-])c2)cc1 [Compound VI, Tolcapone, reference compound]	0.68	99	67	90	92	0.758	< 5	fold reduction of virus titer (Dengue virus; 5 μM compound): greater than 100 fold
O=C(OC[C@H]1OC(OC(=O)c2cc(O)c(O)c(OC(=O)c3cc(O)c(O)c(O)c3)c2)C(OC(=O)c2cc(O)c(O)c(OC(=O)c3cc(O)c(O)c(O)c3)c2)[C@@H](OC(=O)c2cc(O)c(O)c(OC(=O)c3cc(O)c(O)c(O)c3)c2)C1OC(=O)c1cc(O)c(O)c(OC(=O)c2cc(O)c(O)c(O)c2)c1)c1cc(O)c(O)c(OC(=O)c2cc(O)c(O)c(O)c2)c1 (some centres unmarked) [Compound VII, Tannic acid, reference compound]	0.312	98	96	99	101	0.768	< 5	
CCOC(=O)c1oc2c(O)c(O)ccc2c(=O)c1-c1cnn(-c2ccccc2)c1 [Compound V]	4.3	75	95	75	86	4.8		IC50 (DENV-4 protease): 5.32 ± 0.6 µM; CC50 at 24 h [1]: 202 µM; EC50 [2]: 9.7 µM; IC50 (DENV-1 protease): 6.4 ± 1.2 µM; CC50 at 24 h [3]: 168 µM; IC50 (DENV-3 protease): 5 ± 1.4 µM; EC50 [4]: 11.7 µM
